The nature of this series: Pharmacokinetics of GHB in plasma after oral gavage of GHB delivering compounds in rats; relative oral bioavailability vs sodium oxybate. The conditions noted are these: vehicle water; for % AUC0-4 hr, relative oral bioavailability vs sodium oxybate / % Cmax, relative oral bioavailability vs sodium oxybate: mean conjugate PK parameter/mean comparator PK parameter.
The mark [1] stands for this setting: molar equivalent of 100 mg/kg NaGHB.
The mark [2] stands for this setting: dose equivalent to 80 mg/kg NaGHB (extrapolated to 100 mg/kg).
[3] abbreviates: dose equivalent to 80 mg/kg NaGHB, data extrapolated to 100 mg/kg.

As to `O=C1CCCO1` [GBL], under setting [1], the “AUC0-4 hr of GHB in plasma” value came out at 9.04 ng·h/mL; the “Cmax of GHB in plasma” value is recorded as 15.4 ng/mL; the “Tmax of GHB in plasma” value was 15 min; the “% AUC0-4 hr, relative oral bioavailability vs sodium oxybate” value worked out at 27%. Moreover, the “% Cmax, relative oral bioavailability vs sodium oxybate” value under setting [1] was 70%.
For `CCOC(=O)OCCCC(=O)O` [O-(ethoxycarbonyl)-GHB], under setting [2], the “% AUC0-4 hr, relative oral bioavailability vs sodium oxybate” value was 54% and the “% Cmax, relative oral bioavailability vs sodium oxybate” value was 51%. Besides, under setting [3], the “AUC0-4 hr of GHB in plasma” value was 19.4 ng·h/mL and the “Cmax of GHB in plasma” value was 15.0 ng/mL. Besides, under “dose equivalent to 80 mg/kg NaGHB”, the “Tmax of GHB in plasma” value was 21 min.

These data come from patent US20230338543A1, “GAMMA-HYDRO[…] AND PROCESSES FOR MAKING AND USING THEM” (Zevra Therapeutics, Inc., priority 2022, published 2023).
